Patent publication US10413559B2, “Method for treating demyelinating disease” (OCHANOMIZU UNIVERSITY, priority 2013, dated 2019)

What was measured:
[1] = system: GFAP, Iba1, PDGFRa, P2rx7, Nlrp3 gene expression in corpus callosum; assay: Genetic analysis using Q-PCR of corpus callosum tissues; type: in vivo, C57BL/6j mice; conditions: cuprizone mice; intraperitoneal 1.6 mg/kg/day for 5 weeks; FIG. 6-8
From the text: 10-week-old male C57BL/6j mice (Tokyo Laboratory Animals Science Co., Ltd., Tokyo, Japan) were fed by the discretionary intake of a mash feed (CLEA Japan, Inc.) that contained 0.2% cuprizone (biscyclohexanone oxalyl hydrazone; Merck KGaA, Darmstadt, Germany) for 5 weeks until demyelination progressed most, so as to produce demyelination model mice involving demyelination caused by oligodendrocyte-specific cell death.
To obtain mouse corpus callosum tissues to be used for genetic analysis, mouse brain was removed, and the corpus callosum tissues were then collected from the brain. […]
mRNA was extracted from the frozen corpus callosum tissues using ISOGEN (Nippon Gene Co., Ltd., Tokyo, Japan), was then dissolved in RNase free molecular grade water (Takara Bio Inc., Shiga, Japan), and was then preserved at −80° C. […] Gene expression was detected using 7900 Sequence Detection System (Applied Biosystems). […] The gene expression level was calculated by a ΔΔCT method. Data were analyzed by a relative quantification method. A relative change in the gene expression was analyzed, while setting the gene expression level in a control mouse at 100%.

[2] = system: demyelination model mice (0.2% cuprizone); assay: Test of motor function impairment using rotarod; type: in vivo, C57BL/6j mice; conditions: intraperitoneal 1.6 mg/kg/day for 5 weeks, 28 rpm, 300 seconds, FIG. 9, FIG. 10
From the text: 10-week-old male C57BL/6j mice (Tokyo Laboratory Animals Science Co., Ltd., Tokyo, Japan) were fed by the discretionary intake of a mash feed (CLEA Japan, Inc.) that contained 0.2% cuprizone (biscyclohexanone oxalyl hydrazone; Merck KGaA, Darmstadt, Germany) for 5 weeks until demyelination progressed most, so as to produce demyelination model mice involving demyelination caused by oligodendrocyte-specific cell death. The cPA used in the experiment was the same cPA (16:0) as that used in Example 1, and the carba-cPA was 2 ccPA (16:1). The cPA and 2 ccPA were chemically purified (Biochimica et Biophysica Acta, Emi Nozaki 2011), and were then dissolved in a 0.9% saline. […] The locomotion time on the rod was evaluated by measuring the time required for the mice to fall from the rotating rod within a record time of 300 seconds. Moreover, even after the mice had fallen from the rod, they were forced to continue their activity immediately after the falling, so that a total number of the activities from falling from the rod to holding on to the rod for 300 seconds (a number of falls and flips) was measured and evaluated. The data of the test of motor function impairment were analyzed according to a non-parametric method using a Kruskal-Wallis test. All of other data were analyzed according to a one-way ANOVA method using a Newman-Keulis test. […]

SMILES: CCCCCCCCCCCCCCCC(=O)OCC1COP(=O)(O)O1 (centres unmarked) [cPA]
- nerve inflammation (gene expression by Q-PCR) [1]: nerve inflammation is suppressed
- motor function impairment (rotarod) [2]: motor function impairment is improved
